Where “and” joins values, the source holds several entries; their conditions need not be identical. Equal values may be shown once. Toxic doses and inconclusive results are not listed.
System: P388 leukemia ip, CD2F1 mice, survival T/C
Assay: NCI In Vivo Anticancer Drug Screen. Data for tumor model P388 Leukemia (intraperitoneal) in CD2F1 (CDF1) mice
Conditions: endpoint: median survival time, higher = longer survival
Method in brief: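 Mice carrying the transplanted tumor received test compound or vehicle. Survival was recorded in each group, and the value is the treated-group measurement divided by that of the vehicle-treated control group.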

[1] = dose: 12.5 mg/kg/injection, schedule: Q01DX009 (ip), vehicle: distilled water + Tween-80
[2] = dose: 50.0 mg/kg/injection, schedule: Q01DX009 (ip), vehicle: saline with Tween-80
[3] = dose: 100.0 mg/kg/injection, schedule: Q01DX009 (ip), vehicle: saline with Tween-80
[4] = dose: 200.0 mg/kg/injection, schedule: Q01DX009 (ip), vehicle: saline with Tween-80
[5] = dose: 50.0 mg/kg/injection, schedule: Q01DX005 (ip), vehicle: saline with Tween-80
[6] = dose: 100.0 mg/kg/injection, schedule: Q01DX005 (ip), vehicle: saline with Tween-80
[7] = dose: 200.0 mg/kg/injection, schedule: Q01DX005 (ip), vehicle: saline with Tween-80
[8] = dose: 50.0 mg/kg/injection, schedule: Q01DX009 (ip), vehicle: Klucel (hydroxypropylcellulose) (HPC)
[9] = dose: 100.0 mg/kg/injection, schedule: Q01DX009 (ip), vehicle: Klucel (hydroxypropylcellulose) (HPC)
[10] = dose: 50.0 mg/kg/injection, schedule: Q01DX005 (ip), vehicle: Klucel (hydroxypropylcellulose) (HPC)
[11] = dose: 100.0 mg/kg/injection, schedule: Q01DX005 (ip), vehicle: Klucel (hydroxypropylcellulose) (HPC)
[12] = dose: 200.0 mg/kg/injection, schedule: Q01DX005 (ip), vehicle: Klucel (hydroxypropylcellulose) (HPC)
[13] = dose: 60.0 mg/kg/injection, schedule: Q01DX005 (ip), vehicle: saline with Tween-80
[14] = dose: 120.0 mg/kg/injection, schedule: Q01DX005 (ip), vehicle: saline with Tween-80
[15] = dose: 240.0 mg/kg/injection, schedule: Q01DX005 (ip), vehicle: saline with Tween-80
[16] = dose: 50.0 mg/kg/injection, schedule: Q01DX009 (ip), vehicle: saline
[17] = dose: 100.0 mg/kg/injection, schedule: Q01DX009 (ip), vehicle: saline
[18] = dose: 200.0 mg/kg/injection, schedule: Q01DX009 (ip), vehicle: saline

SMILES: Cc1nc(C(=O)OCc2ccccc2)cc(OCc2ccccc2)c1C
- T/C [1]: 101 % of control
- T/C (dose: 25.0 mg/kg/injection, schedule: Q01DX009 (ip), vehicle: distilled water + Tween-80): 90 % of control
- T/C (dose: 50.0 mg/kg/injection, schedule: Q01DX009 (ip), vehicle: distilled water + Tween-80): 95 % of control
- T/C (dose: 100.0 mg/kg/injection, schedule: Q01DX009 (ip), vehicle: distilled water + Tween-80): 90 % of control
- T/C (dose: 200.0 mg/kg/injection, schedule: Q01DX009 (ip), vehicle: distilled water + Tween-80): 93 % of control

SMILES: O=C(c1cccnc1)c1cc(-c2ccccn2)c(=O)n2ccccc12
- T/C (dose: 25.0 mg/kg/injection, schedule: Q01DX009 (ip), vehicle: saline with Tween-80): 99 % of control and 104 % of control
- T/C [2]: 107 % of control and 109 % of control and 88 % of control
- T/C [3]: 104 % of control and 107 % of control and 89 % of control
- T/C [4]: 90 % of control

SMILES: Oc1ccc2ccccc2c1/C=N/N=c1\[nH][nH]/c(=N\N=C\c2c(O)ccc3ccccc23)c2ccccc12
- T/C [5]: 98 % of control
- T/C [6]: 97 % of control
- T/C [7]: 99 % of control

SMILES: O=NN(CCCl)C(=O)NC1[C@H](O)CCC[C@@H]1O (stereo partly drawn)
- T/C (dose: 0.63 mg/kg/injection, schedule: Q01DX005 (ip), vehicle: saline): 118 % of control
- T/C (dose: 2.5 mg/kg/injection, schedule: Q01DX005 (ip), vehicle: saline): 159 % of control
- T/C (dose: 5.0 mg/kg/injection, schedule: Q01DX005 (ip), vehicle: saline): 190 % of control and 267 % of control
- T/C (dose: 10.0 mg/kg/injection, schedule: Q01DX005 (ip), vehicle: saline): 116 % of control and 206 % of control

SMILES: CC1(C)C(=O)C2(CCCCC2)C1N1CCCCC1 (stereo not drawn)
- T/C [8]: 96 % of control
- T/C [9]: 98 % of control
- T/C (dose: 200.0 mg/kg/injection, schedule: Q01DX009 (ip), vehicle: Klucel (hydroxypropylcellulose) (HPC)): 107 % of control

SMILES: Cc1ccc(C(=Nc2ccccc2)N=P(c2ccccc2)(c2ccccc2)c2ccccc2)cc1
- T/C (dose: 25.0 mg/kg/injection, schedule: Q01DX005 (ip), vehicle: saline with Tween-80): 103 % of control
- T/C [5]: 113 % of control and 122 % of control
- T/C [6]: 120 % of control

SMILES: COc1nc(N)nc2c1CSc1ccccc1-2
- T/C [10]: 97 % of control
- T/C [11]: 97 % of control
- T/C [12]: 90 % of control

SMILES: CNCCNc1ccc(NCCNC)c2c1C(=O)c1ccccc1C2=O
- T/C (dose: 2.0 mg/kg/injection, schedule: Q01DX009 (ip), vehicle: acid diluted with saline): 183 % of control
- T/C (dose: 4.0 mg/kg/injection, schedule: Q01DX009 (ip), vehicle: acid diluted with saline): 175 % of control
- T/C (dose: 8.0 mg/kg/injection, schedule: Q01DX009 (ip), vehicle: acid diluted with saline): 175 % of control
- T/C [1]: 200 % of control
- T/C (dose: 16.0 mg/kg/injection, schedule: Q01DX009 (ip), vehicle: acid diluted with saline): 86 % of control

SMILES: Nc1ncc(NCCCNc2ccc(C(=O)NC(CCC(=O)O)C(=O)O)cc2)c(=O)[nH]1 (stereo not drawn)
- T/C (dose: 6.25 mg/kg/injection, schedule: Q01DX005 (ip), vehicle: Klucel (hydroxypropylcellulose) (HPC)): 100 % of control and 102 % of control
- T/C (dose: 12.5 mg/kg/injection, schedule: Q01DX005 (ip), vehicle: Klucel (hydroxypropylcellulose) (HPC)): 100 % of control and 102 % of control
- T/C (dose: 25.0 mg/kg/injection, schedule: Q01DX005 (ip), vehicle: Klucel (hydroxypropylcellulose) (HPC)): 99 % of control and 104 % of control
- T/C [10]: 102 % of control and 98 % of control
- T/C [11]: 99 % of control and 103 % of control
- T/C [12]: 100 % of control and 102 % of control

SMILES: O=[N+]([O-])c1ccc(Sc2ccc([N+](=O)[O-])cc2)cc1
- T/C (dose: 50.0 mg/kg/injection, schedule: Q04DX003 (ip), vehicle: saline with Tween-80): 90 % of control
- T/C (dose: 66.0 mg/kg/injection, schedule: Q04DX003 (ip), vehicle: saline with Tween-80): 90 % of control
- T/C (dose: 100.0 mg/kg/injection, schedule: Q04DX003 (ip), vehicle: saline with Tween-80): 100 % of control and 95 % of control
- T/C (dose: 150.0 mg/kg/injection, schedule: Q04DX003 (ip), vehicle: saline with Tween-80): 90 % of control
- T/C (dose: 200.0 mg/kg/injection, schedule: Q04DX003 (ip), vehicle: saline with Tween-80): 90 % of control

SMILES: c1ccc2c(c1)ncn2Sn1cnc2ccccc21
- T/C (dose: 17.5 mg/kg/injection, schedule: Q01DX005 (ip), vehicle: Klucel (hydroxypropylcellulose) (HPC)): 102 % of control
- T/C (dose: 35.0 mg/kg/injection, schedule: Q01DX005 (ip), vehicle: Klucel (hydroxypropylcellulose) (HPC)): 118 % of control
- T/C (dose: 70.0 mg/kg/injection, schedule: Q01DX005 (ip), vehicle: Klucel (hydroxypropylcellulose) (HPC)): 104 % of control

SMILES: COc1ccc(NC(=O)Nc2nc3c(C)cccc3s2)cc1
- T/C [10]: 101 % of control
- T/C [11]: 98 % of control
- T/C [12]: 93 % of control

SMILES: CCOC(=O)C1(C(=O)O)CCCN(C(=O)OCc2ccccc2)C1Cc1ccccc1 (stereo not drawn)
- T/C (dose: 100.0 mg/kg/injection, schedule: Q01DX001 (ip), vehicle: Klucel (hydroxypropylcellulose) (HPC)): 99 % of control
- T/C (dose: 200.0 mg/kg/injection, schedule: Q01DX001 (ip), vehicle: Klucel (hydroxypropylcellulose) (HPC)): 102 % of control
- T/C (dose: 400.0 mg/kg/injection, schedule: Q01DX001 (ip), vehicle: Klucel (hydroxypropylcellulose) (HPC)): 93 % of control

SMILES: CCOC(=O)N(NC(=O)c1ccccc1)C(C)=O
- T/C (dose: 12.5 mg/kg/injection, schedule: Q01DX009 (ip), vehicle: other): 111 % of control
- T/C (dose: 25.0 mg/kg/injection, schedule: Q01DX009 (ip), vehicle: other): 109 % of control
- T/C (dose: 50.0 mg/kg/injection, schedule: Q01DX009 (ip), vehicle: other): 99 % of control

SMILES: CCCCCCCCCCCC(=O)OOC(C)(C)C
- T/C [13]: 100 % of control
- T/C [14]: 102 % of control
- T/C [15]: 97 % of control

SMILES: CNC(=O)Nc1[nH]c(=O)ncc1Cl
- T/C [13]: 112 % of control
- T/C [14]: 113 % of control

SMILES: CC1(C)SC=C2C1=CSC2(C)C
- T/C [5]: 101 % of control
- T/C [6]: 96 % of control
- T/C [7]: 95 % of control

SMILES: Nc1nc(N)c2nc(/C(Cl)=N/O)cnc2n1
- T/C (dose: 20.0 mg/kg/injection, schedule: Q01DX009 (ip), vehicle: saline): 108 % of control
- T/C (dose: 40.0 mg/kg/injection, schedule: Q01DX009 (ip), vehicle: saline): 105 % of control
- T/C (dose: 80.0 mg/kg/injection, schedule: Q01DX009 (ip), vehicle: saline): 103 % of control

SMILES: O=C1Cc2ccccc2NC(c2ccccc2)C1S(=O)(=O)c1ccccc1 (stereo not drawn)
- T/C [10]: 102 % of control
- T/C [11]: 102 % of control
- T/C [12]: 101 % of control

SMILES: O=C(Nc1ccc(Cl)cc1)Nc1nnc2nc(CC(=O)c3ccc4ccccc4c3)c(=O)[nH]n12
- T/C [13]: 97 % of control
- T/C [14]: 99 % of control
- T/C [15]: 97 % of control

SMILES: Nn1cnc2c(nnn2Cc2ccccc2)c1=O
- T/C (dose: 100.0 mg/kg/injection, schedule: Q04DX002 (ip), vehicle: saline with Tween-80): 104 % of control
- T/C (dose: 200.0 mg/kg/injection, schedule: Q04DX002 (ip), vehicle: saline with Tween-80): 100 % of control

SMILES: N#CCCP(=O)(O)CO
- T/C [16]: 106 % of control
- T/C [17]: 100 % of control
- T/C [18]: 92 % of control

SMILES: CC(C)OC1NC(=O)Oc2ccccc21 (stereo not drawn)
- T/C [5]: 104 % of control
- T/C [6]: 110 % of control
- T/C [7]: 113 % of control

SMILES: C/C(=N\Nc1cc(C)nc2ccc(C)cc12)c1cn(C)n(-c2ccccc2)c1=O
- T/C [8]: 97 % of control
- T/C [9]: 86 % of control

SMILES: COC(=O)N1N=C(c2ccccc2)C(C(=O)OC)(C(=O)OC)c2ccccc21
- T/C [13]: 93 % of control
- T/C [14]: 87 % of control

SMILES: NCCCCCC(CCN)SCC1OC(n2cnc3c(N)ncnc32)C(O)C1O (stereo not drawn)
- T/C (dose: 15.0 mg/kg/injection, schedule: Q01DX005 (ip), vehicle: saline with Tween-80): 109 % of control
- T/C (dose: 30.0 mg/kg/injection, schedule: Q01DX005 (ip), vehicle: saline with Tween-80): 103 % of control
- T/C [13]: 96 % of control

SMILES: Cc1cc2nc3ccc(N)cc3oc-2cc1=[N+](C)C
- T/C (dose: 6.25 mg/kg/injection, schedule: Q01DX009 (ip), vehicle: saline): 108 % of control
- T/C [16]: 100 % of control

SMILES: Cc1c(C)[n+]([O-])c(-c2ccc(Cl)cc2)n1O
- T/C [2]: 100 % of control
- T/C [3]: 100 % of control
- T/C [4]: 100 % of control

SMILES: CC(=O)C1=C(N)OCCC1
- T/C [16]: 114 % of control
- T/C [17]: 107 % of control
- T/C [18]: 109 % of control

— PubChem BioAssay AID330 (DTP/NCI, 2004)
